In US8580794B2 (AbbVie Inc., priority 2009, dated 2013):
pKi: −log10 of the molar value.

What follows are compounds tested against GST-Bc1-2 (Homo sapiens, UniProt P10415) (assay: Time Resolved-Fluorescence Resonance Energy Transfer (TR-FRET) Bcl-2 binding assay with F-Bak peptide probe). Details: GST-Bcl-2 1 nM, F-Bak probe 100 nM, Tb-anti-GST 1 nM; '<' = below limit of detection; read-out: TR-FRET Bcl-2 Binding Ki.
GST-Bc1-2, sequence (P10415 whole entry): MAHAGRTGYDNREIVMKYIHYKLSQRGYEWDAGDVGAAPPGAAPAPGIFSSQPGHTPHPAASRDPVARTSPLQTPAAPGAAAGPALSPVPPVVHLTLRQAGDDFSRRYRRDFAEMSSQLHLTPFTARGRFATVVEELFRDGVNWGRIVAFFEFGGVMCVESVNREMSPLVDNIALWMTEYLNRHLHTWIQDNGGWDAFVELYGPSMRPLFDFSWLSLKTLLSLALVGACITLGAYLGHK

| SMILES | pKi |
| --- | --- |
| COCC(=O)N1CCC(COc2ccc(S(=O)(=O)NC(=O)c3ccc(N4CCN(CC5=C(c6ccc(Cl)cc6)CC(C)(C)CC5)CC4)cc3Oc3cnc4[nH]ccc4c3)cc2Cl)CC1 [Example 294, N-[(3-chloro-4-{[1-(methoxyacetyl)piperidin-4-yl]methoxy}phenyl)sulfonyl]-4-(4-{[2-(4-chlorophenyl)-4,4-dimethylcyclohex-1-en-1-yl]methyl}piperazin-1-yl)-2-(1H-pyrrolo[2,3-b]pyridin-5-yloxy)benzamide] | 10.34 |
| CC1(C)CCC(CN2CCN(c3ccc(C(=O)NS(=O)(=O)c4ccc(OCC5(F)CCN(C6COC6)CC5)c(C#N)c4)c(Oc4cnc5[nH]ccc5c4)c3)CC2)=C(c2ccc(Cl)cc2)C1 [Example 357, 4-(4-{[2-(4-chlorophenyl)-4,4-dimethylcyclohex-1-en-1-yl]methyl}piperazin-1-yl)-N-[(3-cyano-4-{[4-fluoro-1-(oxetan-3-yl)piperidin-4-yl]methoxy}phenyl)sulfonyl]-2-(1H-pyrrolo[2,3-b]pyridin-5-yloxy)benzamide] | > 11.00 |
| CC1(C)CCC(CN2CCN(c3ccc(C(=O)NS(=O)(=O)c4ccc(NCC5CCOCC5)c(S(=O)(=O)C(F)(F)F)c4)c(Oc4cnc5[nH]ccc5c4)c3)CC2)=C(c2ccc(Cl)cc2)C1 [Example 17, 4-(4-{[2-(4-chlorophenyl)-4,4-dimethylcyclohex-1-en-1-yl]methyl}piperazin-1-yl)-2-(1H-pyrrolo[2,3-b]pyridin-5-yloxy)-N-({4-[(tetrahydro-2H-pyran-4-ylmethyl)amino]-3-[(trifluoromethyl)sulfonyl]phenyl}sulfonyl)benzamide] | 10.05 |
| CC1(C)CCC(CN2CCN(c3ccc(C(=O)NS(=O)(=O)c4cnc(OCC5(F)CCOCC5)c(C(F)(F)F)c4)c(Oc4cnc5[nH]ccc5c4)c3)CC2)=C(c2ccc(Cl)cc2)C1 [Example 208, 4-(4-{[2-(4-chlorophenyl)-4,4-dimethylcyclohex-1-en-1-yl]methyl}piperazin-1-yl)-N-{[6-[(4-fluorotetrahydro-2H-pyran-4-yl)methoxy]-5-(trifluoromethyl)pyridin-3-yl]sulfonyl}-2-(1H-pyrrolo[2,3-b]pyridin-5-yloxy)benzamide] | 9.98 |
| CC1(C)CCC(CN2CCN(c3ccc(C(=O)NS(=O)(=O)c4cnc(OCC5(F)CCN(CC(F)F)CC5)c(Cl)c4)c(Oc4cnc5[nH]ccc5c4)c3)CC2)=C(c2ccc(Cl)cc2)C1 [Example 285, N-[(5-chloro-6-{[1-(2,2-difluoroethyl)-4-fluoropiperidin-4-yl]methoxy}pyridin-3-yl)sulfonyl]-4-(4-{[2-(4-chlorophenyl)-4,4-dimethylcyclohex-1-en-1-yl]methyl}piperazin-1-yl)-2-(1H-pyrrolo[2,3-b]pyridin-5-yloxy)benzamide] | > 11.00 |
| CC1(C)CCC(CN2CCN(c3ccc(C(=O)NS(=O)(=O)c4ccc(NC5CCS(=O)(=O)CC5)c([N+](=O)[O-])c4)c(Oc4cnc5[nH]ccc5c4)c3)CC2)=C(c2ccc(Cl)cc2)C1 [Example 81, 4-(4-{[2-(4-chlorophenyl)-4,4-dimethylcyclohex-1-en-1-yl]methyl}piperazin-1-yl)-N-({4-[(1,1-dioxidotetrahydro-2H-thiopyran-4-yl)amino]-3-nitrophenyl}sulfonyl)-2-(1H-pyrrolo[2,3-b]pyridin-5-yloxy)benzamide] | > 11.00 |
| CC1(C)CCC(CN2CCN(c3ccc(C(=O)NS(=O)(=O)c4ccc(NCC56CC7CC(C5)C(O)C(C7)C6)c([N+](=O)[O-])c4)c(Oc4cnc5[nH]ccc5c4)c3)CC2)=C(c2ccc(Cl)cc2)C1 (stereo not drawn) [Example 200, 4-(4-{[2-(4-chlorophenyl)-4,4-dimethylcyclohex-1-en-1-yl]methyl}piperazin-1-yl)-N-{[4-({[(Z)-4-hydroxy-1-adamantyl]methyl}amino)-3-nitrophenyl]sulfonyl}-2-(1H-pyrrolo[2,3-b]pyridin-5-yloxy)benzamide] | > 11.00 |
| CC1(C)CCC(CN2CCN(c3ccc(C(=O)NS(=O)(=O)c4ccc(NC5CCC(N(CCC#N)C6CC6)CC5)c([N+](=O)[O-])c4)c(Oc4cnc5[nH]ccc5c4)c3)CC2)=C(c2ccc(Cl)cc2)C1 (stereo not drawn) [Example 340, 4-(4-{[2-(4-chlorophenyl)-4,4-dimethylcyclohex-1-en-1-yl]methyl}piperazin-1-yl)-N-{[4-({4-[(2-cyanoethyl)(cyclopropyl)amino]cyclohexyl}amino)-3-nitrophenyl]sulfonyl}-2-(1H-pyrrolo[2,3-b]pyridin-5-yloxy)benzamide] | > 11.00 |
| CC1(C)CCC(CN2CCN(c3ccc(C(=O)NS(=O)(=O)c4ccc(N[C@H]5CC[C@H](N6CCOCC6)CC5)c([N+](=O)[O-])c4)c(Oc4ccc5[nH]ccc5c4)c3)CC2)=C(c2ccc(Cl)cc2)C1 [Example 19, Trans-4-(4-{[2-(4-chlorophenyl)-4,4-dimethylcyclohex-1-en-1-yl]methyl}piperazin-1-yl)-2-(1H-indol-5-yloxy)-N-({4-[(4-morpholin-4-ylcyclohexyl)amino]-3-nitrophenyl}sulfonyl)benzamide] | 9.65 |
| CN1CCC[C@H]1C(=O)N1CCC(COc2ccc(S(=O)(=O)NC(=O)c3ccc(N4CCN(CC5=C(c6ccc(Cl)cc6)CC(C)(C)CC5)CC4)cc3Oc3cnc4[nH]ccc4c3)cc2Cl)CC1 [Example 312, N-[(3-chloro-4-{[1-(1-methyl-L-prolyl)piperidin-4-yl]methoxy}phenyl)sulfonyl]-4-(4-{[2-(4-chlorophenyl)-4,4-dimethylcyclohex-1-en-1-yl]methyl}piperazin-1-yl)-2-(1H-pyrrolo[2,3-b]pyridin-5-yloxy)benzamide] | > 11.00 |
| CC1(C)CCC(CN2CCN(c3ccc(C(=O)NS(=O)(=O)c4cnc(OCCC5CCOCC5)c(C#N)c4)c(Oc4cnc5[nH]ccc5c4)c3)CC2)=C(c2ccc(Cl)cc2)C1 [Example 278, 4-(4-{[2-(4-chlorophenyl)-4,4-dimethylcyclohex-1-en-1-yl]methyl}piperazin-1-yl)-N-({5-cyano-6-[2-(tetrahydro-2H-pyran-4-yl)ethoxy]pyridin-3-yl}sulfonyl)-2-(1H-pyrrolo[2,3-b]pyridin-5-yloxy)benzamide] | 9.60 |
| CC1(C)CCC(CN2CCN(c3ccc(C(=O)NS(=O)(=O)c4cnc(OCC5CCN(c6nccs6)CC5)c(Cl)c4)c(Oc4cnc5[nH]ccc5c4)c3)CC2)=C(c2ccc(Cl)cc2)C1 [Example 375, 4-(4-{[2-(4-chlorophenyl)-4,4-dimethylcyclohex-1-en-1-yl]methyl}piperazin-1-yl)-N-[(5-chloro-6-{[1-(1,3-thiazol-2-yl)piperidin-4-yl]methoxy}pyridin-3-yl)sulfonyl]-2-(1H-pyrrolo[2,3-b]pyridin-5-yloxy)benzamide] | 9.96 |
| CC1(C)CC(c2ccc(Cl)cc2)=C(CN2CCN(c3ccc(C(=O)NS(=O)(=O)c4ccc(N[C@H]5CC[C@H](N6CCOCC6)CC5)c([N+](=O)[O-])c4)c(Oc4cnc5[nH]ccc5c4)c3)CC2)CO1 [Example 33, Trans-4-(4-{[4-(4-chlorophenyl)-6,6-dimethyl-5,6-dihydro-2H-pyran-3-yl]methyl}piperazin-1-yl)-N-({4-[(4-morpholin-4-ylcyclohexyl)amino]-3-nitrophenyl}sulfonyl)-2-(1H-pyrrolo[2,3-b]pyridin-5-yloxy)benzamide] | > 11.00 |
| CC1(C)CCC(CN2CCN(c3ccc(C(=O)NS(=O)(=O)c4ccc(OCC5CCOCC5)c([N+](=O)[O-])c4)c(Oc4cnc5[nH]ccc5c4)c3)CC2)=C(c2ccc(Cl)cc2)C1 [Example 24, 4-(4-{[2-(4-chlorophenyl)-4,4-dimethylcyclohex-1-en-1-yl]methyl}piperazin-1-yl)-N-{[3-nitro-4-(tetrahydro-2H-pyran-4-ylmethoxy)phenyl]sulfonyl}-2-(1H-pyrrolo[2,3-b]pyridin-5-yloxy)benzamide] | > 11.00 |
| CC1(C)CCC(CN2CCN(c3ccc(C(=O)NS(=O)(=O)c4ccc(O[C@@H]5CCN(C(CF)CF)C5)c([N+](=O)[O-])c4)c(Oc4cnc5[nH]ccc5c4)c3)CC2)=C(c2ccc(Cl)cc2)C1 [Example 235, 4-(4-{[2-(4-chlorophenyl)-4,4-dimethylcyclohex-1-en-1-yl]methyl}piperazin-1-yl)-N-[(4-{[(3R)-1-(1,3-difluoropropan-2-yl)pyrrolidin-3-yl]oxy}-3-nitrophenyl)sulfonyl]-2-(1H-pyrrolo[2,3-b]pyridin-5-yloxy)benzamide] | 10.64 |
| CC1(C)CCC(CN2CCN(c3ccc(C(=O)NS(=O)(=O)c4cnc(NC5CCN(C6CC6)CC5)c(Cl)c4)c(Oc4cnc5[nH]ccc5c4)c3)CC2)=C(c2ccc(Cl)cc2)C1 [Example 243, N-({5-chloro-6-[(1-cyclopropylpiperidin-4-yl)amino]pyridin-3-yl}sulfonyl)-4-(4-{[2-(4-chlorophenyl)-4,4-dimethylcyclohex-1-en-1-yl]methyl}piperazin-1-yl)-2-(1H-pyrrolo[2,3-b]pyridin-5-yloxy)benzamide] | 9.26 |
| CC1(C)CCC(CN2CCN(c3ccc(C(=O)NS(=O)(=O)c4ccc(N[C@@H]5CCOC5)c([N+](=O)[O-])c4)c(Oc4cnc5[nH]ccc5c4)c3)CC2)=C(c2ccc(Cl)cc2)C1 [Example 238, 4-(4-{[2-(4-chlorophenyl)-4,4-dimethylcyclohex-1-en-1-yl]methyl}piperazin-1-yl)-N-({3-nitro-4-[(3R)-tetrahydrofuran-3-ylamino]phenyl}sulfonyl)-2-(1H-pyrrolo[2,3-b]pyridin-5-yloxy)benzamide] | > 11.00 |
| CC1(C)CCC(CN2CCN(c3ccc(C(=O)NS(=O)(=O)c4ccc(NC5CCN(C6CCOC6)CC5)c([N+](=O)[O-])c4)c(Oc4cnc5[nH]ccc5c4)c3)CC2)=C(c2ccc(Cl)cc2)C1 (stereo not drawn) [Example 143, 4-(4-{[2-(4-chlorophenyl)-4,4-dimethylcyclohex-1-en-1-yl]methyl}piperazin-1-yl)-N-({3-nitro-4-[(1-tetrahydrofuran-3-ylpiperidin-4-yl)amino]phenyl}sulfonyl)-2-(1H-pyrrolo[2,3-b]pyridin-5-yloxy)benzamide] | > 11.00 |

Same assay, conditions: Table 4, selected compounds of Ser. No. 12/631,404; read-out: Bcl-2 FRET Ki

| SMILES | pKi |
| --- | --- |
| CC1(C)CCC(CN2CCN(c3ccc(C(=O)NS(=O)(=O)c4ccc(N[C@H]5CC[C@H](N6CCOCC6)CC5)c([N+](=O)[O-])c4)c(Oc4ccc5[nH]ccc5c4)c3)CC2)=C(c2ccc(Cl)cc2)C1 [Example 19, Trans-4-(4-{[2-(4-chlorophenyl)-4,4-dimethylcyclohex-1-en-1-yl]methyl}piperazin-1-yl)-2-(1H-indol-5-yloxy)-N-({4-[(4-morpholin-4-ylcyclohexyl)amino]-3-nitrophenyl}sulfonyl)benzamide] | 9.65 |

Same assay, conditions: Table 5, direct comparison Z=N vs Z=C analogs; read-out: Bcl-2 FRET ki

| SMILES | pKi |
| --- | --- |
| CC1(C)CCC(CN2CCN(c3ccc(C(=O)NS(=O)(=O)c4ccc(NCC5CCOCC5)c(S(=O)(=O)C(F)(F)F)c4)c(Oc4cnc5[nH]ccc5c4)c3)CC2)=C(c2ccc(Cl)cc2)C1 [Example 17, 4-(4-{[2-(4-chlorophenyl)-4,4-dimethylcyclohex-1-en-1-yl]methyl}piperazin-1-yl)-2-(1H-pyrrolo[2,3-b]pyridin-5-yloxy)-N-({4-[(tetrahydro-2H-pyran-4-ylmethyl)amino]-3-[(trifluoromethyl)sulfonyl]phenyl}sulfonyl)benzamide] | 10.05 |
| CC1(C)CCC(CN2CCN(c3ccc(C(=O)NS(=O)(=O)c4ccc(N[C@H]5CC[C@H](N6CCOCC6)CC5)c([N+](=O)[O-])c4)c(Oc4ccc5[nH]ccc5c4)c3)CC2)=C(c2ccc(Cl)cc2)C1 [Example 19, Trans-4-(4-{[2-(4-chlorophenyl)-4,4-dimethylcyclohex-1-en-1-yl]methyl}piperazin-1-yl)-2-(1H-indol-5-yloxy)-N-({4-[(4-morpholin-4-ylcyclohexyl)amino]-3-nitrophenyl}sulfonyl)benzamide] | 9.65 |
